Experimental data taken from US20060069132A1, “Azolecarboxamide herbicides” (priority 2004, published 2006).

Legend:
goosegrass = test: Test C pre-/postemergence herbicide test; format: in vivo, Eleusine indica
Outline: (§1)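 Visual ratings on a 0–100 scale (100 = complete control) made versus untreated controls after 12 to 14 greenhouse days. Test chemicals, formulated in surfactant-containing non-phytotoxic solvent, applied preemergence to planted seeds or postemergence to 1- to 4-leaf plants (2 to 18 cm).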

rice = test: Test B flooded paddy test; format: in vivo, Oryza sativa; conditions: 1000 g ai/ha, scale 0 to 100 (0 no effect, 100 complete control)
Outline: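 Read-out: visual comparison with controls, scored 0 to 100, where 100 means complete control and 0 no effect. Formulated chemicals were applied postemergence to plants 2–18 cm tall (1- to 4-leaf), or to flooded-paddy plants at the 2-leaf stage, then held 13 to 15 days under glass.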

velvetleaf = test: Test C pre-/postemergence herbicide test; format: in vivo, Abutilon theophrasti
Outline: as §1

barnyardgrass = test: Test B flooded paddy test; format: in vivo, Echinochloa crus-galli; conditions: 1000 g ai/ha, scale 0 to 100 (0 no effect, 100 complete control)
Outline: (§2)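 After treating 2-leaf paddy plants or 2–18 cm postemergence plants (1 to 4 leaves) with formulated chemical, researchers kept them in a greenhouse for 13–15 days. Effects were judged visually versus controls: 0 indicates none, 100 total control.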

ducksalad = test: Test B flooded paddy test; format: in vivo, Heteranthera limosa; conditions: 1000 g ai/ha, scale 0 to 100 (0 no effect, 100 complete control)
Outline: as §2

johnsongrass = test: Test C pre-/postemergence herbicide test; format: in vivo, Sorghum halepense
Outline: as §1

lambsquarters = test: Test C pre-/postemergence herbicide test; format: in vivo, Chenopodium album
Outline: as §1

corn = test: Test C pre-/postemergence herbicide test; format: in vivo, Zea mays
Outline: as §1

cocklebur = test: Test C pre-/postemergence herbicide test; format: in vivo, Xanthium strumarium
Outline: as §1

eastern black nightshade = test: Test C pre-/postemergence herbicide test; format: in vivo, Solanum ptycanthum; conditions: preemergence
Outline: as §1

[1] = 62 g ai/ha, preemergence, scale 0 to 100
[2] = 125 g ai/ha, scale 0 (no effect) to 100 (complete control), visual, 12 to 14 days, preemergence
[3] = 250 g ai/ha, scale 0-100, preemergence
[4] = 500 g ai/ha, scale 0 to 100 (0 no effect, 100 complete control), visual, 12 to 14 days, preemergence
[5] = Postemergence, 500 g ai/ha, scale 0 to 100
[6] = Postemergence, 250 g ai/ha, scale 0 to 100, 0 no effect, 100 complete control
[7] = postemergence, 125 g ai/ha, scale 0 to 100
[8] = postemergence, 62 g ai/ha, scale 0 to 100
[9] = 500 g ai/ha, scale 0 to 100 (0 no effect, 100 complete control), visual, 12 to 14 days

C=CCNC(=O)c1cccc(NC(=O)c2cc(C(C)(C)C)nn2C)n1 [Compound 318]
Plant response rating, Goosegrass (goosegrass; [1]): 0 | Plant response rating, Goosegrass (goosegrass; [2]): 10 | Plant response rating, Goosegrass (goosegrass; [3]): 80 | Plant response rating, Goosegrass (goosegrass; [4]): 90 | Goosegrass plant response rating (goosegrass; [5]): 5 | Plant response rating, Goosegrass (goosegrass; [6]): 5 | Plant response rating, Goosegrass (goosegrass; [7]): 0 | Plant response rating, Goosegrass (goosegrass; [8]): 0 | Rice plant response rating (rice): 40 | Plant response rating, Velvetleaf (velvetleaf; [1]): 60 | Plant response rating, Velvetleaf (velvetleaf; [3]): 100 | Plant response rating, Velvetleaf (velvetleaf; [4]): 100 | Velvetleaf plant response rating (velvetleaf; [5]): 60 | Plant response rating, Velvetleaf (velvetleaf; [6]): 40 | Plant response rating, Velvetleaf (velvetleaf; [7]): 35 | Plant response rating, Velvetleaf (velvetleaf; [8]): 0 | Barnyardgrass plant response rating (barnyardgrass): 70 | Ducksalad plant response rating (ducksalad): 70 | Plant response rating, Johnsongrass (johnsongrass; [1]): 0 | Plant response rating, Johnsongrass (johnsongrass; [2]): 0 | Plant response rating, Johnsongrass (johnsongrass; [3]): 60 | Plant response rating, Johnsongrass (johnsongrass; [4]): 95 | Johnsongrass plant response rating (johnsongrass; [5]): 0 | Plant response rating, Johnsongrass (johnsongrass; [6]): 0 | Plant response rating, Johnsongrass (johnsongrass; [7]): 0 | Plant response rating, Johnsongrass (johnsongrass; [8]): 0 | Plant response rating, Lambsquarters (lambsquarters; [1]): 80 | Plant response rating, Lambsquarters (lambsquarters; [2]): 95 | Plant response rating, Lambsquarters (lambsquarters; [3]): 100 | Plant response rating, Lambsquarters (lambsquarters; [4]): 100 | Lambsquarters plant response rating (lambsquarters; [5]): 100 | Plant response rating, Lambsquarters (lambsquarters; [6]): 100 | Plant response rating, Lambsquarters (lambsquarters; [7]): 70 | Plant response rating, Lambsquarters (lambsquarters; [8]): 60 | Plant response rating, Corn (corn; [1]): 0 | Plant response rating, Corn (corn; [2]): 0 | Plant response rating, Corn (corn; [3]): 10 | Plant response rating, Corn (corn; [4]): 40 | Corn plant response rating (corn; [5]): 25 | Plant response rating, Corn (corn; [6]): 10 | Plant response rating, Corn (corn; [7]): 10 | Plant response rating, Corn (corn; [8]): 0 | Plant response rating, Cocklebur (cocklebur; [1]): 0 | Plant response rating, Cocklebur (cocklebur; [2]): 0 | Plant response rating, Cocklebur (cocklebur; [3]): 0 | Cocklebur plant response rating (cocklebur; [5]): 100 | Plant response rating, Cocklebur (cocklebur; [6]): 10 | Cocklebur plant response rating (cocklebur; Preemergence, 500 g ai/ha, scale 0 to 100, 0 no effect, 100 complete control): 0 | Plant response rating, Cocklebur (cocklebur; [7]): 5 | Plant response rating, Cocklebur (cocklebur; [8]): 0 | Plant response rating, Nightshade (eastern black nightshade; 62 g ai/ha, scale 0 to 100): 80 | Plant response rating, Nightshade (eastern black nightshade; 125 g ai/ha, scale 0 (no effect) to 100 (complete control), visual, 12 to 14 days): 90 | Plant response rating, Nightshade (eastern black nightshade; 250 g ai/ha, scale 0-100): 95 | Plant response rating, Nightshade (eastern black nightshade; [9]): 95

Cc1nn(C(C)(C)C)nc1C(=O)Nc1cccc(C(=S)N(C)C)c1 [Compound 419]
Plant response rating, Goosegrass (goosegrass; [1]): 45 | Plant response rating (0 = no effect, 100 = complete control), Goosegrass (goosegrass; 125 g ai/ha, preemergence): 95 | Plant response rating, Goosegrass (goosegrass; [3]): 100 | Plant response rating, Goosegrass (goosegrass; [4]): 100 | Rice plant response rating (rice): 80 | Plant response rating, Velvetleaf (velvetleaf; [1]): 100 | Plant response rating (0 = no effect, 100 = complete control), Velvetleaf (velvetleaf; 125 g ai/ha, preemergence): 100 | Plant response rating, Velvetleaf (velvetleaf; [4]): 100 | Barnyardgrass plant response rating (barnyardgrass): 90 | Ducksalad plant response rating (ducksalad): 70 | Plant response rating, Johnsongrass (johnsongrass; [1]): 100 | Plant response rating (0 = no effect, 100 = complete control), Johnsongrass (johnsongrass; 125 g ai/ha, preemergence): 100 | Plant response rating, Johnsongrass (johnsongrass; [3]): 100 | Plant response rating, Johnsongrass (johnsongrass; [4]): 100 | Plant response rating, Lambsquarters (lambsquarters; [1]): 95 | Plant response rating (0 = no effect, 100 = complete control), Lambsquarters (lambsquarters; 125 g ai/ha, preemergence): 95 | Plant response rating, Lambsquarters (lambsquarters; [3]): 100 | Plant response rating, Lambsquarters (lambsquarters; [4]): 100 | Plant response rating, Corn (corn; [1]): 0 | Plant response rating (0 = no effect, 100 = complete control), Corn (corn; 125 g ai/ha, preemergence): 0 | Plant response rating, Corn (corn; [3]): 0 | Plant response rating, Corn (corn; [4]): 40 | Plant response rating, Cocklebur (cocklebur; [1]): 0 | Plant response rating (0 = no effect, 100 = complete control), Cocklebur (cocklebur; 125 g ai/ha, preemergence): 25 | Plant response rating, Cocklebur (cocklebur; [3]): 45 | Plant response rating, Cocklebur (cocklebur; [4]): 70 | Plant response rating, Nightshade (eastern black nightshade; 62 g ai/ha, scale 0 to 100): 85 | Plant response rating (0 = no effect, 100 = complete control), Nightshade (eastern black nightshade; 125 g ai/ha): 95 | Plant response rating, Nightshade (eastern black nightshade; [9]): 100

CCNC(=S)c1cccc(NC(=O)c2nn(C(C)(C)C)nc2C)c1 [Compound 420]
Plant response rating, Goosegrass (goosegrass; [1]): 95 | Plant response rating (0 = no effect, 100 = complete control), Goosegrass (goosegrass; 125 g ai/ha, preemergence): 95 | Plant response rating, Goosegrass (goosegrass; [3]): 100 | Plant response rating, Goosegrass (goosegrass; [4]): 100 | Rice plant response rating (rice): 60 | Plant response rating, Velvetleaf (velvetleaf; [1]): 80 | Plant response rating (0 = no effect, 100 = complete control), Velvetleaf (velvetleaf; 125 g ai/ha, preemergence): 100 | Plant response rating, Velvetleaf (velvetleaf; [4]): 100 | Barnyardgrass plant response rating (barnyardgrass): 90 | Ducksalad plant response rating (ducksalad): 80 | Plant response rating, Johnsongrass (johnsongrass; [1]): 100 | Plant response rating (0 = no effect, 100 = complete control), Johnsongrass (johnsongrass; 125 g ai/ha, preemergence): 100 | Plant response rating, Johnsongrass (johnsongrass; [3]): 100 | Plant response rating, Johnsongrass (johnsongrass; [4]): 100 | Plant response rating, Lambsquarters (lambsquarters; [1]): 95 | Plant response rating (0 = no effect, 100 = complete control), Lambsquarters (lambsquarters; 125 g ai/ha, preemergence): 100 | Plant response rating, Lambsquarters (lambsquarters; [3]): 100 | Plant response rating, Lambsquarters (lambsquarters; [4]): 100 | Plant response rating, Corn (corn; [1]): 0 | Plant response rating (0 = no effect, 100 = complete control), Corn (corn; 125 g ai/ha, preemergence): 0 | Plant response rating, Corn (corn; [3]): 10 | Plant response rating, Corn (corn; [4]): 40 | Plant response rating, Cocklebur (cocklebur; [1]): 0 | Plant response rating (0 = no effect, 100 = complete control), Cocklebur (cocklebur; 125 g ai/ha, preemergence): 0 | Plant response rating, Cocklebur (cocklebur; [3]): 15 | Plant response rating, Cocklebur (cocklebur; [4]): 70 | Plant response rating, Nightshade (eastern black nightshade; 62 g ai/ha, scale 0 to 100): 80 | Plant response rating (0 = no effect, 100 = complete control), Nightshade (eastern black nightshade; 125 g ai/ha): 90 | Plant response rating, Nightshade (eastern black nightshade; [9]): 100
